Source: patent publication US4871527A, “No-carrier-added [^18 F]-N-fluoroalkylspiroperidols” (The United States of America as represented by the United …, priority 1987, dated 1989)
“Also recorded” adds a separate entry of the source. Where two headings read alike, the source gives them in different places.

Columns and labels:
[1] = Metabolic stability of N-(3-[^18 F]fluoropropyl)spiroperidol in mouse brains; assay type: in vivo, female albino mice (BNL strain); settings: for Percent Recovery of Total ^18 F Applied to C-18 Sep-Pak, H2O Eluate / Percent Recovery of Total ^18 F Applied to C-18 Sep-Pak, MeOH Eluate / Percent Recovery of Total ^18 F Applied to C-18 Sep-Pak, NaOH Eluate / Percent of ^18 F in MeOH as N-(3-[^18 F]fluoropropyl)spiroperidol / remaining at 1 h: 1 hr; for remaining at 1 h: mouse, brain, iv, read-out: Percent of Unchanged N-(3-[^18 F]fluoropropyl)spiroperidol
Experimental: Metabolic Stability of N-(3-[^18 F]fluoropropyl)spiroperidol in Mouse Brains
Three female albino mice (BNL strain), 27-30 g, were injected in a lateral tail vein with […] of N-(3-[^18 F]fluoropropyl)spiroperidol in 100 μl of isotonic saline solution. At 1 hr after injection, the mice were killed by cervical dislocation. The brain was rapidly removed, homogenized either in a mixture of 2 ml of CH3 OH and 4 ml of 0.4M HClO4, or in 2 ml of CH3 OH alone. The samples were centrifuged,and the CH3 OH fractions (or the entire supernants in the case of CH3 OH alone) were analyzed for unchanged N-(3-[^18 F]fluoropropyl)spiroperidol [Arnett et al., Life Sci., 36, 1359-1366 (1985)] and analyzed by HPLC (C18 column, 4.5×250 mm, CH3 OH:0.2N NH4 CO2 H (90:10), 1.5 ml/min).
^a The precipitates were separated without further washings.
^b The precipitates were separated and washed with MeOH--HClO4

[2] = tested on: dopamine receptors; test: Affinity for dopamine receptors; assay type: binding
[3] = tested on: dopamine receptors; test: PET baboon studies: brain kinetics in striatum and cerebellum
From the text: A young adult (11 kg) female baboon (Papio anubis) was anesthetized initially with ketamine and subsequently maintained under halothane/nitrous oxide anesthesia for two PETT studies as described in the Arnett et al. paper referenced in Example 7. […] PET scans were made continually for 4 hr from the time of radioisotope injection. Regions of interest corresponding to the striata and cerebellum were selected.

[4] = tested on: dopamine receptors; test: Uptake in the brain and radiation burden (general statement); settings: in vivo
[5] = Baboon plasma analyses: blood kinetics and metabolism; assay type: in vivo, baboon (Papio anubis)
Experimental: Baboon Plasma Analyses: Blood was sampled from the femoral artery at initial intervals of 5 sec. Aliquots of plasma were counted to determine the total plasma radioactivity clearance curve. Representative samples (Table 6) were also analyzed for unchanged N-(3-[^18 F]fluoropropyl)spiroperidol.
The baboon blood total plasma radioactivity clearance curve following injection of NCA N-(3-[^18 F]fluoropropyl)spiroperidol is depicted in FIG. 1. The blood clearance was very rapid. The appearance of metabolites in the blood was also rapid (Table 6). At 10 min after injection 68% of plasma radioactivity was due to unchanged N-(3-[^18 F]fluoropropyl)spiroperidol.
*Plasma samples were extracted with MeOH--0.4M HClO4

[6] = Tissue distribution of NCA N-(3-[^18 F]fluoropropyl)spiroperidol in mice after butaclamol pretreatment; assay type: in vivo, female albino mice (BNL strain)
Experimental: Tissue Distribution of NCA N-(3-[^ 18 F]fluoropropyl)spiroperidol in Mice
Female albino mice (BNL strain), 22-27 g, were injected in a lateral tail vein with 24-85 μCi of N-(3-[^18 F]fluoropropyl)spiroperidol in 100 μl of isotonic saline solution.
Mice were pretreated with 2 mg/kg, i.v., of either (-)butaclamol (-), or
(+)butaclamol (+). The mice were killed by cervical dislocation and
decapitation at 5, 60 and 120 min after injection. The dissected tissues
were blotted to remove adhering blood and placed in tared counting vials.
A sample of blood was obtained from the trunk immediately after
decapitation. The entire tail was counted to verify the patency of the
tail vein injection. All samples were counted and weighed, and the
activity expressed as percent of injected dose per organ or percent of
injected dose per gram of tissue.

[7] = mouse brain, 2X MeOH-HClO4 (washed again)
[8] = mouse brain, MeOH-HClO4 extraction, no further washings
[9] = baboon, (-)-butaclamol pretreatment
[10] = baboon plasma, 0.67 min after injection
[11] = baboon plasma, 4.0 min after injection
[12] = baboon plasma, 10 min after injection
[13] = baboon plasma, 30 min after injection
[14] = baboon plasma, 120 min after injection
[15] = (+)-butaclamol pretreatment, 5 min
[16] = (+)-butaclamol pretreatment, 60 min
[17] = (+)-butaclamol pretreatment, 120 min
[18] = (-)-butaclamol pretreatment, 5 min
[19] = (-)-butaclamol pretreatment, 60 min
[20] = (-)-butaclamol pretreatment, 120 min

O=C(CCCN1CCC2(CC1)C(=O)N(CCC[18F])CN2c1ccccc1)c1ccc(F)cc1 [N-(3-[^18 F]fluoropropyl)spiroperidol]
Percent Recovery of Total ^18 F Applied to C-18 Sep-Pak, H2O Eluate [1, 7]: 11%
Percent Recovery of Total ^18 F Applied to C-18 Sep-Pak, MeOH Eluate [1, 7]: 81%
Percent Recovery of Total ^18 F Applied to C-18 Sep-Pak, NaOH Eluate [1, 7]: 3.1%
Percent of ^18 F in MeOH as N-(3-[^18 F]fluoropropyl)spiroperidol [1, 7]: 94%
Percent Recovery of Total ^18 F Applied to C-18 Sep-Pak, MeOH Eluate ([1]; mouse brain, MeOH Alone): 65%
Percent of ^18 F in MeOH as N-(3-[^18 F]fluoropropyl)spiroperidol ([1]; mouse brain, MeOH Alone): 97%
Percent Recovery of Total ^18 F Applied to C-18 Sep-Pak, H2O Eluate [1, 8]: 4.2%
Percent Recovery of Total ^18 F Applied to C-18 Sep-Pak, MeOH Eluate [1, 8]: 73%
Percent Recovery of Total ^18 F Applied to C-18 Sep-Pak, NaOH Eluate [1, 8]: 1.3%
Percent of ^18 F in MeOH as N-(3-[^18 F]fluoropropyl)spiroperidol [1, 8]: 94%
Stability to metabolic transformation in the central nervous system ([1]; mouse brain, one hour): very stable to metabolic transformation in the central nervous system
remaining at 1 h ([1]; 2X MeOH-HClO4 (washed again)): 76%
remaining at 1 h ([1]; MeOH Alone): 62%
remaining at 1 h ([1]; MeOH-HClO4 extraction, no further washings): 69%
Affinity for dopamine receptors [2]: extremely high affinity for dopamine receptors
Striatal accumulation of radioactivity, blocking by (+)-butaclamol ([3]; (+)-butaclamol pretreatment, species not given): blocked stereoselectively by (+)-butaclamol
Radioactivity in the cerebellum after first few minutes [3, 9]: declined rapidly in the cerebellum
Radioactivity in the striatum after first few minutes [3, 9]: increasing for up to 4 hrs in the striatum
Influx into striatum and cerebellum ([3]; baboon, (-)-butaclamol pretreatment, first few minutes): nearly equal for the first few minutes
Radiation burden [4]: reduced radiation burden
Uptake and retention in the brain [4]: enhanced uptake and retention in the brain
Blood / total plasma radioactivity clearance ([5]; baboon): very rapid; also recorded: rapid
Total recovery of ^18 F applied to C-18 Sep-pak ([5]; baboon plasma samples): 90-103%
% Recovery of Total ^18 F Applied to C-18 Sep-Pak, H2O Eluate [5, 10]: 8%
% Recovery of Total ^18 F Applied to C-18 Sep-Pak, MeOH Eluate [5, 10]: 93%
% Recovery of Total ^18 F Applied to C-18 Sep-Pak, NaOH Eluate [5, 10]: 2%
% of ^18 F in MeOH as N-(3-[^18 F]fluoropropyl)spiroperidol [5, 10]: 98%
% Recovery of Total ^18 F Applied to C-18 Sep-Pak, H2O Eluate [5, 11]: 10%
% Recovery of Total ^18 F Applied to C-18 Sep-Pak, MeOH Eluate [5, 11]: 83%
% Recovery of Total ^18 F Applied to C-18 Sep-Pak, NaOH Eluate [5, 11]: 4%
% of ^18 F in MeOH as N-(3-[^18 F]fluoropropyl)spiroperidol [5, 11]: 99%
% Recovery of Total ^18 F Applied to C-18 Sep-Pak, H2O Eluate [5, 12]: 17%
% Recovery of Total ^18 F Applied to C-18 Sep-Pak, MeOH Eluate [5, 12]: 71%
% Recovery of Total ^18 F Applied to C-18 Sep-Pak, NaOH Eluate [5, 12]: 6%
% of ^18 F in MeOH as N-(3-[^18 F]fluoropropyl)spiroperidol [5, 12]: 96%
% Recovery of Total ^18 F Applied to C-18 Sep-Pak, H2O Eluate [5, 13]: 31%
% Recovery of Total ^18 F Applied to C-18 Sep-Pak, MeOH Eluate [5, 13]: 45%
% Recovery of Total ^18 F Applied to C-18 Sep-Pak, NaOH Eluate [5, 13]: 14%
% of ^18 F in MeOH as N-(3-[^18 F]fluoropropyl)spiroperidol [5, 13]: 90%
% Recovery of Total ^18 F Applied to C-18 Sep-Pak, H2O Eluate [5, 14]: 49%
% Recovery of Total ^18 F Applied to C-18 Sep-Pak, MeOH Eluate [5, 14]: 30%
% Recovery of Total ^18 F Applied to C-18 Sep-Pak, NaOH Eluate [5, 14]: 18%
% of ^18 F in MeOH as N-(3-[^18 F]fluoropropyl)spiroperidol [5, 14]: 74%
Appearance of metabolites in the blood ([5]; in vivo): rapid
remaining at 40 s ([5]; in vivo, iv, baboon plasma, 0.67 min after injection, read-out: % of Unchanged N-(3-[^18 F]fluoropropyl)spiroperidol): 91%
remaining at 4 min ([5]; in vivo, iv, baboon plasma, 4.0 min after injection, read-out: % of Unchanged N-(3-[^18 F]fluoropropyl)spiroperidol): 82%
remaining at 10 min ([5]; in vivo, iv, baboon plasma, 10 min after injection, read-out: % of Unchanged N-(3-[^18 F]fluoropropyl)spiroperidol): 68%
remaining at 0.5 h ([5]; in vivo, iv, baboon plasma, 30 min after injection, read-out: % of Unchanged N-(3-[^18 F]fluoropropyl)spiroperidol): 41%
remaining at 2 h ([5]; in vivo, iv, baboon plasma, 120 min after injection, read-out: % of Unchanged N-(3-[^18 F]fluoropropyl)spiroperidol): 22%
Cerebellum, % injected dose [6, 15]: 0.11 (0.08-0.14) %/organ
Striatum, % injected dose [6, 15]: 0.051 %/organ
Whole Brain, % injected dose [6, 15]: 0.79 (0.57-1.00) %/organ
Cerebellum, % injected dose [6, 16]: 0.019 (0.013-0.025) %/organ
Striatum, % injected dose [6, 16]: 0.013 (0.009-0.018) %/organ
Whole Brain, % injected dose [6, 16]: 0.16 %/organ
Cerebellum, % injected dose [6, 17]: 0.012 %/organ
Striatum, % injected dose [6, 17]: 0.010 %/organ
Whole Brain, % injected dose [6, 17]: 0.097 %/organ
Cerebellum, % injected dose [6, 18]: 0.24 (0.13-0.45) %/organ
Striatum, % injected dose [6, 18]: 0.084 (0.068-0.099) %/organ
Whole Brain, % injected dose [6, 18]: 1.1 (0.9-1.4) %/organ
Cerebellum, % injected dose [6, 19]: 0.040 (0.032-0.048) %/organ
Striatum, % injected dose [6, 19]: 0.089 %/organ
Whole Brain, % injected dose [6, 19]: 0.67 (0.59-0.77) %/organ
Cerebellum, % injected dose [6, 20]: 0.028 (0.023-0.032) %/organ
Striatum, % injected dose [6, 20]: 0.14 (0.11-0.17) %/organ
Whole Brain, % injected dose [6, 20]: 0.56 (0.44-0.63) %/organ
